4 compounds from paper PMC11571215, “Optimization of Antiproliferative Properties of Triimine Copper(II) Complexes” (Journal of Medicinal Chemistry, 2024) can be followed below.

One may read the IC50 as the point on the concentration scale where inhibition reaches its midpoint.

Common to all, as to assay type: cell-based, human
One experiment has as its system HCT116-DoxR cells. Nature of the experiment: Autophagy induction (CYTO-ID green, flow cytometry). Conditions: 48 h; complexes at IC50, Dox 6 μM, Cis 5 μM, rapamycin 1500 nM. The source says:
Furthermore, previous studies have shown that complexes containing terpyridine derivatives have the ability to trigger both apoptosis and autophagy cell death mechanisms in cancer cells simultaneously.[38] This convergence of death pathways may arise from an adaptive response of the heterogeneous tumor cell population.[38] In this context, understanding the mechanism by which cells lose viability in the presence of the two Cu(II) complexes with the simultaneous induction of apoptosis and autophagy becomes crucial. Autophagy is a highly conserved catabolic process crucial for maintaining cellular homeostasis but is also associated with type II programmed cell death.[75] It involves intracellular degradation through autophagolysosomes responsible for breaking down luminal content and enabling recycling of cellular components.[76],[77] The assessment of the complexes’ ability to induce autophagy was conducted using flow cytometry, employing the CYTO-ID green detection reagent. This probe emits green fluorescence, marking the autophagic vacuoles within the cell. Higher fluorescence indicates a greater proportion of autophagolysosomes.[78] Three positive controls were used: Dox, Cis, and rapamycin (1500 nM), whose concentration was previously optimized for the HCT116-DoxR cell line in the laboratory.[64] Rapamycin is known to induce autophagy through its mechanistic target, mTOR.
Cell death via autophagy was evaluated using the Autophagy Assay Kit (ab139484; Abcam, Cambridge, United Kingdom), according to the manufacturers’ instructions. HCT116-DoxR cells were seeded at a density of 1 × 10^5 cells/mL in 6-well plates for 24 h, under the same conditions described before. After this incubation period, the culture medium was replaced with a fresh medium containing the copper complexes under evaluation at their IC50 concentration. A 0.1% (v/v) DMSO solution was used as the negative (vehicle) control, and 6 μM Dox and 5 μM Cis were used as positive controls. The cells were incubated again for 48 h. Rapamycin (1500 nM) was also added as a positive control, and it was added 18 h before the end of the 48 h incubation. After this period, the supernatant was discarded, and each well was washed with PBS 1×. Subsequently, cells were detached using TrypLE Express and washed with phenol red-free DMEM medium containing 5% (v/v) FBS. Cells were incubated with Green Stain Solution in phenol red-free DMEM medium containing 5% (v/v) FBS for 30 min at RT. After this period, the samples were washed and then resuspended in Assay Buffer 1×. The samples were analyzed using an Attune Acoustic Focusing Flow Cytometer (Life Technologies, Carlsbad, USA), and the results were analyzed via the Attune Cytometric software.
(Flow cytometry measures light scatter and fluorescence of single cells or particles in a stream.)

The test system of experiment [1] is A2780 cells (ovarian carcinoma). Nature of the experiment: MTS cell viability assay, A2780. Conditions: for IC50: 48 h of exposure, MTS, relative IC50, mean + SEM; for SI A2780: ratio IC50 fibroblasts / IC50 A2780. The protocol:
(§1) The antiproliferative effect of the Cu(II) complexes in tumor and healthy cell lines was assessed through the MTS assay, a colorimetric method that is widely used to evaluate cellular viability, specifically mitochondrial viability.[53],[54] Cellular viability was determined after 48 h exposure to a concentration range (0.1–50 μM) of Cu(II) complexes in three tumor cell lines. […] Additionally, the viability of healthy primary dermal fibroblasts was performed as a comparison of the complexes’ antiproliferative effects in normal cells.
(§2) Cellular viability assays were performed using HCT116, HCT116-DoxR, and A2780 cancer cell lines as well as normal human primary fibroblasts. Cells were seeded at a density of 0.75 × 10^5 cells/mL in 96-well plates and incubated at 37 °C with 5% (v/v) CO2 for 24 h. After this incubation period, the copper complexes were accurately weighed and immediately dissolved in 100% (v/v) dimethyl sulfoxide (DMSO). Subsequently, the complexes were diluted to the final concentration using a cell culture medium. The culture medium in each well was replaced with fresh medium containing varying concentrations of the complexes (ranging from 0.01 to 50 μM). Negative controls contained culture medium with 0.1% (v/v) DMSO, and positive controls contained 0.4 μM Dox.
(§3) After an additional 48 h of incubation under the same conditions, cellular viability was assessed using the CellTiter 96 Aqueous One Solution Cell Proliferation Assay kit (Promega, Madison, USA). Metabolically active cells contain mitochondrial dehydrogenases that can reduce 3-(4,5-dimethylthiazol-2-yl)-5-(3-carboxymethoxyphenyl)-2-(4-sulfophenyl)-2H-tetrazolium, the inner salt (MTS) to formazan. The absorbance of formazan, measured at 490 nm in a microplate reader (Tecan Infinite M200, Tecan, Männedorf, Switzerland), is directly proportional to the number of viable cells.[104]
(§4) The cell viability versus concentration graphics were analyzed using Prism 8 software (GraphPad) to determine the half-maximal inhibitory concentration (IC50) of each complex for the respective cell line. Additionally, the selective index (SI) for each complex was calculated by dividing the IC50 of human fibroblasts by the IC50 values of the tested cancer cell lines.
(Tetrazolium dyes change colour on reduction, which living cells bring about.)

In experiment [2] the test system is HCT116-DoxR cells (doxorubicin resistant colorectal carcinoma). The experiment in a line: MTS cell viability assay, HCT116-DoxR 2D. Conditions: for IC50: 48 h of exposure, MTS, relative IC50, mean + SEM, read-out: IC50 HCT116-DoxR (2D); for SI HCT116-DoxR: ratio IC50 fibroblasts / IC50 HCT116-DoxR. How it is done:
as §1, §2, §3, §4

Where two headings read alike, the source gives them in different places.

As for `COc1cccc2c1C(=O)c1c(O)c3c(c(O)c1C2=O)C[C@@](O)(C(=O)CO)C[C@@H]3O[C@H]1C[C@H](N)[C@H](O)[C@H](C)O1` [Doxorubicin], in the experiment on HCT116-DoxR cells, the “increase in autophagic vesicles compared to 0.1% DMSO control” value (from here on “increase … to 0.1% DMSO control”) turned out to be 2.2 fold. Moreover, the IC50 in experiment [1] (Homo sapiens, A2780) is 100 ± 40 nM; in experiment [2] (Homo sapiens), greater than 6000 nM.

Regarding `N.N.[Cl][Pt][Cl]` [Cisplatin], in the experiment with HCT116-DoxR cells, the “increase … to 0.1% DMSO control” value is recorded as “increase in green fluorescence intensity”. In addition, in experiment [1], the IC50 worked out at 1900 ± 200 nM.

Take `[Cl][Cu-3]12([Cl])[n+]3ccccc3-c3cc(-c4ccc5ccccc5c4)cc([n+]31)-c1cccc[n+]12` [Cu1b]: in the experiment on HCT116-DoxR cells, the “increase … to 0.1% DMSO control” value is “approximately 2 fold”. For the same compound, in experiment [1], the IC50 is 570 ± 60 nM and the “SI A2780” value is given as 23.3. Besides, in experiment [2], the IC50 was determined as 290 ± 20 nM and the “SI HCT116-DoxR” value was 45.9.

Take `[Cl][Cu-3]12([Cl])[n+]3ccccc3-c3cc(-c4cccc5ccccc45)cc([n+]31)-c1cccc[n+]12` [Cu1a]: the “increase … to 0.1% DMSO control” value in the experiment with HCT116-DoxR cells was “approximately 2 fold”. In experiment [1], the IC50 came to 530 ± 70 nM and the “SI A2780” value is 17.5. Further, in experiment [2], the IC50 came out at 240 ± 20 nM and the “SI HCT116-DoxR” value is 38.6.
